Patent US5559028A, “Methods of enhancing or antigen presentation to T cells inhibiting” (Antigen Express, Inc., priority 1993, dated 1996)
Where no end group is shown, it is not given here.

Assays:
[1] = test system: E^k -restricted murine T cell hybridoma, TPc9.1; assay: Enhancement of presentation of pigeon cytochrome C(81-104) by fixed CH27 cells to TPc9.1 T hybridoma (IL-2/IL-4, HT-2 indicator); type: cell-based
Description: The assay was carried out as follows. 5×10^4 paraformaldehyde-fixed CH27 B lymphoma cells (antigen presenting cells) were incubated in 96-well plates with 5×10^4 TPc9.1 T hybridoma cells (irradiated 2200 rads) for 24 hrs in the presence of: no peptides, 50 μM Ii peptide only, 6 μM pigeon cytochrome C(81-104) peptide only, and 50 μM Ii peptide plus 6 μM pigeon cytochrome C(81-104) peptide. Each condition was assayed in sextuplet. After incubation, the response of the T cell hybridoma was determined by measuring the IL-2/IL-4 secreted during the 24 hr culture. The supernatants were collected and were tested for IL-2/IL-4 content by the ability to support the growth of the IL-2/ IL-4-dependent cell line HT-2 as measured by [^3 H]thymidine incorporation. The values presented in Table V are the CPM×10^-3 incorporated in the HT-2 indicator assay.
The enhancement of responses to pigeon cytochrome C peptide (81-104) by Ii (148-164) and Ii (78-92) was assayed as a function of concentration of the added Ii peptide (Table VI). The values in the Table represent the % enhancement of the pigeon cytochrome C(81-104) peptide-specific, E^k -restricted response by the TPc9.1 murine T cell hybridoma (T) to the peptide presented by paraformaldehyde-fixed CH27 B lymphoma cells (APC). Culture supernatants were collected and were tested for IL-2/IL-4 content by the ability to support the growth of the Il-2/IL-4-dependent cell Line HT-2 as measured by the incorporation of [^3 H]thymidine. The % enhancement was calculated as: [(CPM of T+APC+peptide+Ii peptide / CPM of T+APC+peptide)×100]-100.

cathepsin D [2] = assay: Cathepsin D digestion of wild type and mutant Ii in trimers with HLA-DR1 α,β chains (SDS-PAGE of fragments); type: biochemical; details: pH 5.0, 30 min, room temperature, Jesthom microsomal membrane proteins
Description: The lowest level of cathepsin D seen to cleave Ii was 0.1 U/ml. Solubilized microsomal membrane proteins from [^35 S]methionine-labeled Jesthom cells were treated with the cathepsin D (concentrations 0, 0.01, 0.05, 0.1, 0.5, 2.5, 10.0 U/ml) at pH 5.0 for 30 min at room temperature. At the end of the incubation, the enzyme was inactivated and immunoprecipitates with anti-class II mAb, IVA12 or with anti-Ii mAb, VIC-Y1 were formed. The immunoprecipitated samples were analyzed by SDS-PAGE and autoradiography. In a second experiment, when the lowest level of cathepsin D (0.1 U/ml) seen to cleave Ii was added to the assay for peptide binding in the presence of varying concentrations of cathepsin B (0.02-0.5 U/ml), the net level of peptide binding was enhanced about 3 times that seen without cathepsin D, as judged by densitometry of the autoradiographs. For this experiment iodinated HSAB-MA(18-29) peptide and unradiolabeled microsomal membranes were incubated with or without 0.1 U/ml cathepsin D for 10 min or 30 min in the presence of varying amounts of cathepsin B (0.02, 0.1, or 0.5 U/ml). After subsequent photoactivation and immunoprecipitation with anti-class II mAb, the samples were subjected to SDS-PAGE and autoradiography.
CD digestions were carried out according to Reyes et al. (1991). […]

cathepsin B = cathepsin B (Homo sapiens, UniProt P07858); details: cited from earlier work
cathepsin D [3] = target: cathepsin D (Homo sapiens, UniProt P07339); details: cited from earlier work
Ii = details: cited from earlier work

cathepsin D (Homo sapiens, UniProt P07339), sequence (P07339 65-412, species assumed): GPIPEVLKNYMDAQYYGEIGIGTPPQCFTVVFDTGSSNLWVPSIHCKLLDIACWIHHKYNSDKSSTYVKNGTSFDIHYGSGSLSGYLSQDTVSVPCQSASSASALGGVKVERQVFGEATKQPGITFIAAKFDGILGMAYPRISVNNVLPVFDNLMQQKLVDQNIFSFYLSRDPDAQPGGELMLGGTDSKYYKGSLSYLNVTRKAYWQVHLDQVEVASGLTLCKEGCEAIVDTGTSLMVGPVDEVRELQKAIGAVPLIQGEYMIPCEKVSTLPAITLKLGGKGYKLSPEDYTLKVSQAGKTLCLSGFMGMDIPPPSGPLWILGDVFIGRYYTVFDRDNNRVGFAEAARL

Row | Compound | % enhancement of the pigeon cytochrome C(81-104) peptide-specific response ([1]; Ii peptide 1 μM) | % enhancement of the pigeon cytochrome C(81-104) peptide-specific response ([1]; Ii peptide 10 μM) | % enhancement of the pigeon cytochrome C(81-104) peptide-specific response ([1]; Ii peptide 50 μM) | % enhancement of the pigeon cytochrome C(81-104) peptide-specific response ([1]; Ii peptide 100 μM) | lowest level of cathepsin D seen to cleave Ii (cathepsin D [2]) | inhibition of cathepsin B (cathepsin B) | inhibition of cathepsin D (cathepsin D [3]) | antigen charging in vitro (Ii) | final proteolysis of Ii (Ii)
1 | YRMKLPKPPKPVSKMR [Ii (78-92), YRMKLPKPPKPVSKMR] | 40% | 101% | 187% | 170% | – | – | – | – | –
2 | ENLRHLKNTMETLDWKV [Ii (148-164), ENLRHLKNTMETLDWKV] | 0% | 19% | 91% | 140% | – | – | – | – | –
3 | cathepsin D: aspartyl protease | – | – | – | – | 0.1 U/ml | – | – | – | –
4 | CC(=O)N[C@@H](CC(C)C)C(=O)N[C@@H](CC(C)C)C(=O)N[C@H](C=O)CCCNC(=N)N [leupeptin] | – | – | – | – | – | inhibited | not | blocks antigen charging in vitro | limits the final proteolysis of Ii to p21 and p14 fragments
